Assay results: patent publication US9365851B2, “Spalt-like transcription factor 4 (SALL4) and uses thereof” (National University of Singapore, priority 2011, dated 2016)

Key:
SALL4A and SALL4B = experiment: SALL4 knock-down in endometrial cancer cells (Western blot, qRT-PCR); assay type: cell-based, human; conditions: AN3CA and HEC-1A
Excerpt: In brief, the expression plasmids for human SALL4A and SALL4B were constructed using FUW-Luc-mCh-puro vector (FIG. 43A). SALL4A or SALL4B mutant preserving the same amino acid sequence, but containing triple-point mutations within the SALL4shRNA1 target nucleotide sequence, which renders the transgenes resistant to SALL4 shRNA targeting, were generated using QuikChange site-directed mutagenesis kit (Stratagene) and confirmed by sequencing. Short hairpin RNAs set for human SALL4 in pLKO.1-puro vector were purchased from Open Biosystems (RHS3979) and knockdown efficiency was further evaluated. Two of them, designated as SALL4shRNA1 and SALL4shRNA 2, were selected for subsequent experiments. The sequences for SALL4 shRNAs and Scramble shRNA are listed as following: SALL4shRNA1: […] (SEQ ID NO: 3); SALL4shRNA 2: CTATTTAGCCAAAGGCAAA (SEQ ID NO: 2); Scr-shRNA: […] (SEQ ID NO: 14)
To assess the biological functional role of SALL4 in endometrial cancer, first evaluated was SALL4 expression in a panel of six endometrial cancer cell lines using quantitative real-time PCR to select for appropriate models for our functional studies (FIG. 40). […]

SNU-398 = experiment: Cellular uptake of FITC-labeled peptide; assay type: cell-based, human
Description: Cells were grown typically in 6 well plates (35 mm dish) to 50-70% confluence. Usually the transfect ion efficiency is somehow cell type specific. 2 mM peptide was diluted 4 times in PBS (2 ul+6 ul) (For FITC peptidedo not dilute the 2 mM stock). For each transfection reaction tube with 100 ul PBS+1 ul diluted peptide was set up. Chariot reagent was diluted 1:10 in ddH2O and for each transfection a 94 ul H2O tube+6 ul diluted Chariot was prepared (No master mix for more than 4 transfections). The 2 tubes were carefully mixed by pipetting up and down and incubated 30 min. at room temperature. Medium was aspirated from the dish (well) and cells were overlay with the mix. 400 ul serum free medium was added and cells were incubated further for 1 h 37 C (cell incubator). 500 ul complete medium (with 10% serum) was finally added. If cells are not very sensitive to serum starvation (cancer cell lines) 5% serum could be used.
Fluorescent and Confocal microscopy was performed on cells treated with FITC labeled peptides with or without of transfection reagent depending on the cell type. Cells were mounted on cover slips using mounting media with DAPI (Invitrogen) and in some cases cytoskeleton dye (Invitrogen).
In order to evaluate their cellular uptake and localization, the N terminus of these peptides was labeled with fluorescein isothiocyanate (FITC). Despite the net positive charge of these peptides, their uptake by the cells is cell-type specific. Some cell lines such as HL-60 (an AML cell line) allowed the peptide to enter the cells without any modification or carrier, and some cell lines were not penetrable at all. In order to achieve a similar level of peptide delivery in most cell types, a Chariot Transfection Reagent (Active Motif) was used as a peptide carrier, as directed from the manufacturer. All cell types used in the study described herein were subjected to individual evaluation of the percentage of the cells in which the peptide was delivered as well as the duration of time during which they sustained the labeled peptide in the cells. After Chariot treatment, confocal microscopy studies confirmed uptake of these peptides throughout the cell, including nuclei (as evidenced by DAPI overlay, FIG. 1B).
Next tested was the cellular uptake and localization of these peptides in various types of cells using FITC-labeled wild type or scrambled peptides. Despite the net positive charge of these peptides, their penetration into cells is cell type-specific. Some cell lines, such as HL-60 (an AML cell line), allowed peptide entry without any modification or facilitator, while others such as SNU-398 were not penetrable at all. […] The overall success rate of peptide uptake by the cells was above 95% with Pep-1, as evaluated by flow cytometry (FIG. 9A). […]

PTEN/AKT pathway = PTEN/AKT pathway expression in KBM5 cells (Western blot); assay type: cell-based
Excerpt: To further evaluate the specificity of the SALL4/PTEN pathway, next investigated was whether wild type peptide treatment could affect the expression of PTEN and its downstream target, phosphorylated AKT (pAKT).

Substance	down-regulation of SALL4A and SALL4B (SALL4A and SALL4B)	peptide uptake (cells with peptide) (SNU-398; SNU-398, no carrier) [%]	peptide uptake (cells with peptide) (SNU-398; SNU-398, with Chariot) [%]	cells showing FITC-labeled peptide uptake (SNU-398; SNU-398, with Pep-1 carrier, flow cytometry)	levels of PTEN and pAKT (PTEN/AKT pathway)
CTATTTAGCCAAAGGCAAA (short hairpin RNA, chemistry and delivery not given here, further chemistry not given here) [E5 shRNA]	could down-regulate SALL4A and SALL4B efficiently				
H-MSRRKQAKPQHI-OH [wt peptide, MSRRKQAKPQHI]		0	40	Over 90%	little or no effect
